Laboratory results: patent publication US11485762B2, “Compositions and methods for inhibition of L-plastin activity in osteoclasts to reduce bone loss” (University of Maryland, Baltimore, priority 2017, dated 2022)
Numbering of substitutions follows the chain as printed.

B1: FL-LPL: HA-TAT fused full-length L-plastin protein (70-75 kDa), purified from bacterial expression vector pTAT-HA (protein, UniProt P13796 1-627, looked up)
chain: MARGSVSDEEMMELREAFAKVDTDGNGYISFNELNDLFKAACLPLPGYRVREITENLMATGDLDQDGRISFDEFIKIFHGLKSTDVAKTFRKAINKKEGICAIGGTSEQSSVGTQHSYSEEEKYAFVNWINKALENDPDCRHVIPMNPNTNDLFNAVGDGIVLCKMINLSVPDTIDERTINKKKLTPFTIQENLNLALNSASAIGCHVVNIGAEDLKEGKPYLVLGLLWQVIKIGLFADIELSRNEALIALLREGESLEDLMKLSPEELLLRWANYHLENAGCNKIGNFSTDIKDSKAYYHLLEQVAPKGDEEGVPAVVIDMSGLREKDDIQRAECMLQQAERLGCRQFVTATDVVRGNPKLNLAFIANLFNRYPALHKPENQDIDWGALEGETREERTFRNWMNSLGVNPRVNHLYSDLSDALVIFQLYEKIKVPVDWNRVNKPPYPKLGGNMKKLENCNYAVELGKNQAKFSLVGIGGQDLNEGNRTLTLALIWQLMRRYTLNILEEIGGGQKVNDDIIVNWVNETLREAKKSSSISSFKDPKISTSLPVLDLIDAIQPGSINYDLLKTENLNDDEKLNNAKYAISMARKIGARVYALPEDLVEVNPKMVMTVFACLMGKGMKRV
modifications: full-length HA-TAT tag
notes: HA-TAT fused full-length L-plastin protein (70-75 kDa), purified from bacterial expression vector pTAT-HA
B2: mutated FL-LPL: TAT-fused full-length L-plastin with Ser-5 and Ser-7 mutated to Ala-5 and Ala-7 (protein, UniProt P13796 1-627, looked up, variant S5A S7A)
chain: B1 chain with S5A, S7A
modifications: full-length HA-TAT tag

Tests used:
[1] = test system: endogenous LPL; test: Phosphorylation of endogenous (cellular) LPL in osteoclasts (LPL immunoprecipitation, p-Serine immunoblot); format: cell-based, mouse; details: for inhibitory effect on the phosphorylation of cellular LPL: sNT-LPL peptides, 3-4 hours; for inhibitory effect on the phosphorylation of cellular LPL / phosphorylation of endogenous LPL: bone particles and TNF-α; for phosphorylation of endogenous LPL: TAT-fused LPL peptides 150 nM, 3 hours
Method: Bone particles (60-80 μm in size) were prepared as described previously (Ma et at, 2010, J. Biol. Chem., 285: 29911-29924). After flushing the marrow cells for osteoclast differentiation as described above, long bones of mice (free of cells inside and muscles outside) were washed extensively with PBS and kept in ethanol until use. Long bones were air-dried in the hood and homogenized by a mini blender. Bone particles were sieved and used for experiments. Multinucleated osteoclasts were seen from day four onward. At this time cultures were added with bone particles (100 μg/ml media) for 3-4 hours or 12-14 hours in the presence of TNF-α (20 ng/ml). Some cultures were treated with 3-5 μg/ml TNFR1 antibody. Osteoclasts were preincubated with the TNFR1 antibody for 60-90 minutes before the addition of TNF-α to enhance the blocking effect. Osteoclasts incubated with bone particles for 3-4 or 12-14 hours in the presence of TNF-α were used for lysate preparations.
The vector pTAT-HA has an N-terminal 6-histidine leader (Nagahara et al., 1998, Nature Medicine, 4:1449-1452). […] For transduction with TAT-fused peptides (100-150 nM), osteoclasts were first kept in serum-free α-MEM for two hours. Afterward, TAT proteins of interest, bone particles, and TNF-α were added to cells in serum-free α-MEM Lysates were made from these cells for immunoprecipitation and immunoblotting analyses. Osteoclasts plated on dentine slices in the presence of TAT-proteins of interest and TNF-α for 3-6 hours or 12-14 hours were used for immunostaining or actin staining analyses. Osteoclast cultures treated only with TNF-α were used as controls.
Following various treatments, osteoclasts were washed three-times with cold PBS and lysed in a radioimmune precipitation buffer (RIPA; 10 mM Tris-HCl, pH 7.2, 150 mM NaCl, 1% deoxycholate, 1% Triton X-100, 0.1% SDS, 1% aprotinin, 2 mM PMSF, […], and 1% aprotinin). Cells were rocked on ice for 15 minutes and scraped off with a cell scraper. Cell lysates were centrifuged at 15,000 rpm for 5 minutes at 4° C., and the supernatant was saved. Protein contents were measured using Bio-Rad protein assay reagent. Equal amounts of lysate proteins (100-150 μg) were used for immunoprecipitations. Immunoprecipitations and Western blotting were done as described previously (Chellaiah et al., 1998, J. Biol. Chem., 273: 11908-11916; Chellaiah et al., 1996, Mol. Biol. Cell, 7: 743-753).
After cells were kept in the serum-free α-MEM medium for two hours, LPL peptides of interest were added to a final concentration of 100-150 nM to cells in serum-free media (Chellaiah et al, 2000, J. Biol. Chem., 275: 11993-12002). Osteoclasts transduced with peptides of interest and added with bone particles in the presence of TNF-α for 3-4 hours or 12-14 hours were used for lysate preparations. Cells plated on coverslips and treated with peptides were used for actin staining to detect podosomes. After transduction for 30 min., osteoclasts were re-plated on dentine slices with respective LPL peptide and TNF-α for 3-6 hours or 12-14 hours. These cells were used for Actin staining with rhodamine-phalloidin or immunostaining analyses (Chellaiah et al., 2000, J. Biol. Chem., 275: 11993-12002; Chellaiah et al., 2000, J. Cell. Biol., 148: 665-678; Chellaiah et al., 2003, J Biol Chem 278: 29086-29097).
Following various treatments, osteoclasts were washed three times with cold PBS and lysed in a Triton-containing lysis buffer as described (Chellaiah et al., 1996, Mol. Biol. Cell, 7: 743-753). Cells were rocked on ice for 15 minutes, and scraped off with a cell scraper. Cell lysates were centrifuged at 15,000 rpm for 5 minutes, at 4° C., and the supernatant was saved. Protein contents were measured using Bio-Rad protein assay reagent. Osteoclast cultures were also subjected to a trypan blue dye (Sigma T8154) exclusion test to determine the viability of osteoclasts after various treatments. […]

[2] = test system: osteoclasts; test: F-actin content by rhodamine phalloidin binding; format: cell-based, mouse; details: for F-actin content: TAT-fused LPL peptides, dentine, TNF-α, versus basal level
Method: For the measurement of F-actin, osteoclasts transduced with TAT-LPL peptides of interest for 15 to 30 minutes were re-plated on dentine slices for 3 to 4 hours or 10-12 hours, respectively, in the presence of indicated TAT-fused peptides of interest and TNF-α. For each treatment four to six wells in 24 well, culture dishes were used. Cells were fixed and rhodamine phalloidin binding to F-actin was done as described (Chellaiah et al., 2000, J. Cell Biol., 148: 665-678; Chellaiah et al., 2000, J. Biol. Chem., 275: 11993-12002: Chellaiah et at, 2007, J. Biol. Chem., 282: 10104-10116),
Osteoclasts were transduced with LPL and control peptides. For each treatment four to six wells in 24 well culture dishes were used. Cells were fixed and rhodamine phalloidin binding to F-actin was done as described (Chellaiah et al., 1998, J. Biol. Chem., 273: 11908-11916; Chellaiah et al., 1996, Mol. Biol. Cell, 7: 743-753).

Molecule	inhibitory effect on the phosphorylation of cellular LPL [1]	cellular levels of LPL ([1]; FIG. 8B and FIG. 13B (mouse and RAW-derived osteoclasts))	F-actin level ([2]; sNT-LPL peptides, compared with P2, P5, and P6)	phosphorylation of endogenous LPL [1]	F-actin content [2]
MARGAVADEE [Peptide P2, TAT-fused sNT-LPL peptide, Ser-5 and Ser-7 substituted to Alanine (A5A7)]	No significant inhibitory effect	–	–	–	–
MARGSVSDEE [Peptide P1, TAT-fused small molecular weight (10aa) amino-terminal LPL peptide, unsubstituted (S5S7)]	inhibition is significant	did not change	decrease was significant	–	–
SRSGMVEEAD [Peptide P5, TAT-fused scrambled sNT-LPL peptide, control, reference compound]	No significant inhibitory effect	–	–	–	–
B1	–	–	–	basal level phosphorylation	substantial increase above the basal level
B2	–	–	–	basal level phosphorylation	more or less equal
